Test results reported in ChEMBL document CHEMBL4421722, “Inhibitors of protein prenyltransferases” (2013).

Organism: Rattus norvegicus
Experiment: Inhibition of rat recombinant geranylgeranyltransferase type I expressed in Escherichia coli assessed as residual enzyme activity for geranylgeranylation of K-Ras4B at 50 uM incubated for 30 mins in presence of [3H]GGPP by scintillation counting assay relative to control

In order of falling Activity:
1. CC(=O)C1=CC[C@@H](c2ccc(C)cc2)N(S(=O)(=O)c2ccc(Cl)cc2)C1  112%
2. CC(C)(C)c1ccc([C@H]2C(C(=O)O)=CC[C@@H](c3ccc(Cl)cc3)N2S(=O)(=O)c2ccc(Cl)cc2)cc1  110%
3. COc1ccc(S[C@@H]2C[C@@H](c3ccc(C)cc3)N(S(=O)(=O)c3ccccc3)C[C@H]2C(=O)O)cc1  100%
4. COc1ccc(S[C@@H]2C[C@@H](c3ccccc3)N(S(=O)(=O)c3ccc(C)cc3)C[C@H]2C(=O)O)cc1  99.1%
5. CC(=O)C1=CC[C@@H](c2ccc(C)cc2)N(S(=O)(=O)c2ccccc2)C1  99%
6. COc1cccc([C@@H]2CC=C(C(=O)O)[C@H](c3cccc(C)c3)N2S(=O)(=O)c2ccc(C)cc2)c1  98.6%
7. Cc1ccccc1S(=O)(=O)N1[C@@H](c2ccc(C(C)(C)C)cc2)C(C(=O)O)=CC[C@H]1c1ccc(Cl)cc1  97.3%
8. CCCCCS[C@@H]1C[C@@H](c2ccc(OC)cc2)N(S(=O)(=O)c2ccccc2)C[C@H]1C(=O)O  94.8%
9. CCS[C@@H]1C[C@@H](c2ccccc2)N(S(=O)(=O)c2ccc(C)cc2)C[C@H]1C(=O)O  94.8%
10. Cc1ccc(S(=O)(=O)N2C[C@@H](C(=O)O)[C@H](SC3CCCC3)C[C@H]2c2ccccc2F)cc1  93.4%
11. Cc1ccc([C@@H]2C[C@@H](SCCC(C)C)[C@H](C(=O)O)CN2S(C)(=O)=O)cc1  93.4%
12. Cc1ccc([C@@H]2C[C@@H](SCc3ccccc3)[C@H](C(=O)O)CN2S(=O)(=O)c2ccc(C)cc2)cc1  93.1%
13. CCCS[C@@H]1C[C@@H](c2ccccc2F)N(S(=O)(=O)c2ccc(C)cc2)C[C@H]1C(=O)O  91.1%
14. Cc1ccc(S(=O)(=O)N2[C@@H](c3cccc(F)c3)C(C(=O)O)=CC[C@H]2c2ccc3c(c2)OCO3)cc1  90.9%
15. CCc1ccc([C@@H]2C[C@@H](Sc3ccc(OC)cc3)[C@H](C(=O)O)CN2S(=O)(=O)c2ccc(C)cc2)cc1  90.8%
16. COc1ccc([C@@H]2CC=C(C(=O)O)[C@H](c3ccc(C(C)(C)C)cc3)N2S(=O)(=O)c2ccc(C)cc2)cc1OC  90.4%
17. CCCS[C@@H]1C[C@@H](c2ccc(OC)cc2)N(S(=O)(=O)c2ccccc2)C[C@H]1C(=O)O  89.5%
18. Cc1ccc(S(=O)(=O)N2C[C@@H](C(=O)O)[C@H](Sc3ccc(Cl)cc3)C[C@H]2c2ccccc2F)cc1  88.8%
19. Cc1ccc(S[C@@H]2C[C@@H](c3cccc(Cl)c3)N(S(=O)(=O)c3ccc(C)cc3)C[C@H]2C(=O)O)cc1  88.8%
20. Cc1ccc([C@H]2C(C(=O)O)=CC[C@@H](c3ccc(C)cc3)N2S(=O)(=O)c2ccccc2C)cc1  88.3%
21. COc1ccc([C@@H]2CC=C(C(=O)O)[C@H](c3ccc(C)cc3)N2S(=O)(=O)c2ccccc2)cc1  88.2%
22. CCc1ccc([C@@H]2C[C@@H](SC3CCCC3)[C@H](C(=O)O)CN2S(=O)(=O)c2ccc(C)cc2)cc1  87%
23. Cc1ccc([C@@H]2CC=C(C(=O)O)[C@H](c3ccc(Cl)cc3)N2S(=O)(=O)c2ccccc2C)cc1  86.8%
24. Cc1ccc(S(=O)(=O)N2[C@@H](c3ccc(C(C)(C)C)cc3)C(C(=O)O)=CC[C@H]2c2ccc(F)cc2)cc1  85.1%
25. COc1ccc([C@@H]2C[C@@H](Sc3ccc(C)cc3)[C@H](C(=O)O)CN2S(=O)(=O)c2ccccc2)cc1  84.8%
26. CCS[C@@H]1C[C@@H](c2ccc(CC)cc2)N(S(=O)(=O)c2ccc(C)cc2)C[C@H]1C(=O)O  84.6%
27. CCCS[C@@H]1C[C@@H](c2ccc(C)cc2)N(S(=O)(=O)c2ccc(Cl)cc2)C[C@H]1C(=O)O  83.2%
28. CCCCCCS[C@@H]1C[C@@H](c2ccc(C)cc2)N(S(C)(=O)=O)C[C@H]1C(=O)O  83.1%
29. Cc1ccc([C@@H]2CC=C(C(=O)O)[C@H](c3ccc(Br)cc3)N2S(=O)(=O)c2ccccc2C)cc1  82%
30. Cc1ccc(S(=O)(=O)N2[C@@H](c3cccc(F)c3)C(C(=O)O)=CC[C@H]2c2cccs2)cc1  81.8%
31. Cc1ccc(S(=O)(=O)N2C[C@@H](C(=O)O)[C@H](SCC(C)C)C[C@H]2c2ccc3c(c2)OCO3)cc1  81.7%
32. CCc1ccc([C@@H]2CC=C(C(=O)O)[C@H](c3ccc(C(C)(C)C)cc3)N2S(=O)(=O)c2ccc(C)cc2)cc1  79.7%
33. CCCS[C@@H]1C[C@@H](c2cccc(Cl)c2)N(S(=O)(=O)c2ccc(C)cc2)C[C@H]1C(=O)O  78.8%
34. COc1ccc(S[C@@H]2C[C@@H](c3ccc(C)cc3)N(S(=O)(=O)c3ccc(C)cc3)C[C@H]2C(=O)O)cc1  78.4%
35. Cc1ccc([C@@H]2C[C@@H](SCC(C)C)[C@H](C(=O)O)CN2S(=O)(=O)c2ccccc2C)cc1  78.3%
36. Cc1ccc(S(=O)(=O)N2[C@@H](c3cccc(C)c3)C(C(=O)O)=CC[C@H]2c2ccc(F)cc2)cc1  78.1%
37. Cc1ccc([C@@H]2C[C@@H](SCCC(C)C)[C@H](C(=O)O)CN2S(=O)(=O)c2ccc(Cl)cc2)cc1  77.6%
38. Cc1ccc([C@@H]2CC=C(C(=O)O)[C@H](c3cccc(F)c3)N2S(=O)(=O)c2ccc(C)cc2)cc1  77.3%
39. CCCCCS[C@@H]1C[C@@H](c2ccccc2)N(S(=O)(=O)c2ccc(C)cc2)C[C@H]1C(=O)O  77.2%
40. COc1cccc([C@@H]2C[C@@H](Sc3ccc(C)cc3)[C@H](C(=O)O)CN2S(=O)(=O)c2ccc(C)cc2)c1  77%
41. Cc1ccc(S(=O)(=O)N2[C@@H](c3ccc(C(C)(C)C)cc3)C(C(=O)O)=CC[C@H]2c2ccccc2)cc1  75.2%
42. COc1ccc([C@@H]2CC=C(C(=O)O)[C@H](c3ccc(Br)cc3)N2S(=O)(=O)c2ccc(C)cc2)cc1OC  74%
43. COc1ccc([C@@H]2CC=C(C(=O)O)[C@H](c3ccc(C)cc3)N2S(=O)(=O)c2ccc(C)cc2)cc1  73.8%
44. Cc1ccc([C@H]2C(C(=O)O)=CC[C@@H](c3ccc(C)cc3)N2S(=O)(=O)c2ccc(C)cc2)cc1  73.6%
45. CC(C)(C)c1ccc([C@H]2C(C(=O)O)=CC[C@@H](c3ccccc3)N2S(C)(=O)=O)cc1  73.3%
46. Cc1ccc(S(=O)(=O)N2C[C@@H](C(=O)O)[C@H](SC3CCCC3)C[C@H]2c2cccc(Br)c2)cc1  72.1%
47. CCc1ccc([C@@H]2C[C@@H](Sc3ccc(Cl)cc3)[C@H](C(=O)O)CN2S(=O)(=O)c2ccc(C)cc2)cc1  72%
48. CCc1ccc([C@@H]2C[C@@H](SCCC(C)C)[C@H](C(=O)O)CN2S(=O)(=O)c2ccc(C)cc2)cc1  71.9%
49. COc1cc([C@@H]2C[C@@H](SCc3ccc(C(C)(C)C)cc3)[C@H](C(=O)O)CN2S(=O)(=O)c2ccc(C)cc2)cc(OC)c1OC  71.3%
50. Cc1ccc(S(=O)(=O)N2[C@@H](c3cccc(C)c3)C(C(=O)O)=CC[C@H]2c2ccc3c(c2)OCO3)cc1  70.6%
51. CCCCCCS[C@@H]1C[C@@H](c2ccc(C)cc2)N(S(=O)(=O)c2ccccc2C)C[C@H]1C(=O)O  69.9%
52. Cc1ccc([C@@H]2CC=C(C(=O)O)[C@H](c3ccc(Br)cc3)N2S(=O)(=O)c2ccc(C)cc2)cc1  68.1%
53. CS(=O)(=O)N1[C@@H](c2ccc(F)cc2)C(C(=O)O)=CC[C@H]1c1ccccc1  67.2%
54. Cc1ccc([C@@H]2CC=C(C(=O)O)[C@H](c3cccc(Br)c3)N2S(=O)(=O)c2ccccc2)cc1  67.2%
55. Cc1ccc(S(=O)(=O)N2[C@@H](c3cccc(Cl)c3)C(C(=O)O)=CC[C@H]2c2ccc(F)cc2)cc1  66.7%
56. Cc1ccc(S(=O)(=O)N2[C@@H](c3ccc(F)cc3)C(C(=O)O)=CC[C@H]2c2ccc(C#N)cc2)cc1  65.1%
57. COC(=O)c1ccccc1S(=O)(=O)N1[C@@H](c2cccc(Br)c2)C(C(=O)O)=CC[C@H]1c1ccc(C)cc1  64.9%
58. COc1cccc([C@@H]2C[C@@H](SCC(C)C)[C@H](C(=O)O)CN2S(=O)(=O)c2ccc(C)cc2)c1  64.5%
59. CCc1ccc([C@@H]2C[C@@H](SCc3ccccc3)[C@H](C(=O)O)CN2S(=O)(=O)c2ccc(C)cc2)cc1  63.1%
60. Cc1ccc(S(=O)(=O)N2[C@@H](c3ccc(F)cc3)C(C(=O)O)=CC[C@H]2c2cccc(Br)c2)cc1  62.7%
61. Cc1ccc([C@@H]2C[C@@H](SCc3ccc(C(C)(C)C)cc3)[C@H](C(=O)O)CN2S(=O)(=O)c2ccc(Cl)cc2)cc1  62%
62. CCOc1ccc([C@@H]2C[C@@H](Sc3ccccc3)[C@H](C(=O)O)CN2S(=O)(=O)c2ccc(C)cc2)cc1  61.1%
63. Cc1ccc(S(=O)(=O)N2[C@@H](c3ccc(Cl)cc3)C(C(=O)O)=CC[C@H]2c2cccc(Cl)c2)cc1  60.4%
64. Cc1ccc(S(=O)(=O)N2[C@@H](c3cccc(C)c3)C(C(=O)O)=CC[C@H]2c2cccc(C)c2)cc1  58%
65. O=C(O)C1=CC[C@@H](c2ccc(Cl)cc2)N(S(=O)(=O)c2ccc(Cl)cc2)[C@H]1c1ccc(Cl)cc1  57.7%
66. Cc1ccc(S(=O)(=O)N2[C@@H](c3cccc(Cl)c3)C(C(=O)O)=CC[C@H]2c2cccc(C)c2)cc1  57.6%
67. COc1ccc([C@@H]2C[C@@H](SCc3ccccc3)[C@H](C(=O)O)CN2S(=O)(=O)c2ccccc2)cc1  57.3%
68. Cc1ccc(S(=O)(=O)N2[C@@H](c3ccc(F)cc3)C(C(=O)O)=CC[C@H]2c2ccccc2F)cc1  56%
69. Cc1ccc([C@@H]2CC=C(C(=O)O)[C@H](c3cccc(C)c3)N2S(C)(=O)=O)cc1  56%
70. CS(=O)(=O)N1[C@@H](c2ccc(Cl)cc2)C(C(=O)O)=CC[C@H]1c1ccc(Cl)cc1  55%
71. CS(=O)(=O)N1[C@@H](c2ccc(Br)cc2)C(C(=O)O)=CC[C@H]1c1ccc(Cl)cc1  53.6%
72. Cc1ccc([C@H]2C(C(=O)O)=CC[C@@H](c3ccc(C)cc3)N2S(=O)(=O)c2ccc(Cl)cc2)cc1  53%
73. Cc1ccc([C@@H]2C[C@@H](SCC(C)C)[C@H](C(=O)O)CN2S(=O)(=O)c2ccccc2)cc1  51%
74. Cc1ccc([C@@H]2CC=C(C(=O)O)[C@H](c3cccc(Br)c3)N2S(=O)(=O)c2ccccc2C)cc1  50%
75. COc1cc([C@@H]2C[C@@H](SCc3ccc(Cl)cc3)[C@H](C(=O)O)CN2S(=O)(=O)c2ccc(C)cc2)cc(OC)c1OC  44.9%
76. COc1ccc([C@@H]2C[C@@H](SCCc3ccccc3)[C@H](C(=O)O)CN2S(=O)(=O)c2ccc(C)cc2)cc1OC  44.1%
77. CCc1ccc([C@@H]2C[C@@H](SCc3ccc(Cl)cc3)[C@H](C(=O)O)CN2S(=O)(=O)c2ccc(C)cc2)cc1  43.7%
